From patent US12296030B2, “Conjugates and their use as imaging agents” (priority 2019, dated 2025)

Tests used:
[1] = tested on: quiescent endothelial cells; conditions: in vitro; cited from earlier work
[2] = tested on: proliferating cells; conditions: cited from earlier work
[3] = tested on: angiogenesis; conditions: in vivo; cited from earlier work
[4] = tested on: nodal metastases; assay: FDG-PET in patient 3; assay type: in vivo, human; conditions: patient 3, 60 min after 256 MBq

Row | Compound | toxicity to quiescent endothelial cells [1] | toxicity to proliferating cells [2] | effect on angiogenesis [3] | FDG-PET finding [4]
1 | N[C@@H](CCC(=O)N[C@@H](CSCC(=O)Nc1ccc([As](O)O)cc1)C(=O)NCC(=O)O)C(=O)O [GSAO, 4-(N—(S-glutathionylacetyl)amino)phenylarsenous acid] | nontoxic | toxic | inhibits angiogenesis in vivo | –
2 | O=C[C@H](F)[C@@H](O)[C@H](O)[C@H](O)CO [FDG, 2-fluoro-2-deoxyglucose] | – | – | – | two intensely metabolically active nodal metastases
